Measured values taken from patent US20250051356A1, “RIFABUTIN ANALOGS FOR THE TREATMENT OF DISEASE” (priority 2021, published 2025).
Converted amounts (≈) assume the structure as drawn. Like-named read-outs stand apart in the source and are kept apart here.

Experiments:
Type in all cases: cell-based
[1] = system: S. aureus (UAMS-1625 strain); test: MIC by broth microdilution against S. aureus; settings: Staphylococcus aureus, read-out: MIC S. aureus
[2] = system: A. baumannii (HUMC1 strain); test: MIC by broth microdilution against A. baumannii in RPMI + 10% FCS; settings: Acinetobacter baumannii, read-out: MIC A. baumannii
M. kansasii (ATCC 12478) = test: MIC against M. kansasii in CAMHB + ADC; settings: Mycobacterium kansasii
[3] = system: M. abscessus subsp. abscessus ATCC 19977; test: MIC against M. abscessus in Middlebrook 7H9 + ADC; settings: Mycobacteroides abscessus
M. avium (ATCC 25291) = test: MIC against M. avium in CAMHB + ADC; settings: Mycobacterium avium
M. xenopi (ATCC 19250) = test: MIC against M. xenopi in CAMHB + ADC; settings: Mycobacterium xenopi
[4] = ATCC12478, ATCC 12478, CAMHB + ADC (5%), read-out: MIC M. kansasii
[5] = ATCC19977, ATCC 19977, 7H9 + ADC, read-out: MIC M. abscessus
[6] = ATCC25291, ATCC 25291, CAMHB + ADC (5%), read-out: MIC M. avium
[7] = ATCC19250, ATCC 19250, CAMHB + ADC (5%), read-out: MIC M. xenopi
[8] = ATCC19250, read-out: MIC M. xenopi
[9] = ATCC12478, read-out: MIC M. kansasii
[10] = ATCC19977, read-out: MIC M. abscessus
[11] = ATCC25291, read-out: MIC M. avium

SMILES	MIC [1]	MIC ([2]; HUMC1 strain, RPMI + 10% FCS)	MIC (M. kansasii (ATCC 12478); [4])	MIC [3, 5]	MIC (M. avium (ATCC 25291); [6])	MIC (M. xenopi (ATCC 19250); [7])	MIC (M. xenopi (ATCC 19250); [8])	MIC [2]	MIC (M. kansasii (ATCC 12478); [9])	MIC [3, 10]	MIC (M. avium (ATCC 25291); [11])
CO[C@H]1/C=C/OC2(C)Oc3c(C)c(O)c4c(c3C2=O)C2=NC3(CCN(CC(C)C)CC3)NC2=C(NC(=O)/C(C)=C\C=C\[C@H](C)[C@H](O)[C@@H](C)[C@@H](O)[C@@H](C)[C@H](OC(=O)CCC(=O)N2CCC(N(C)c3ccccc3)CC2)[C@@H]1C)C4=O (stereo partly drawn) [Compound 82]	0.5 µg/mL (≈ 0.464 µM)	0.016 µg/mL	16 ng/mL	0.25 µg/mL	0.25 µg/mL	0.03 µg/mL					
CO[C@H]1/C=C/OC2(C)Oc3c(C)c(O)c4c(c3C2=O)C2=NC3(CCN(CC(C)C)CC3)NC2=C(NC(=O)/C(C)=C\C=C\[C@H](C)[C@H](O)[C@@H](C)[C@@H](O)[C@@H](C)[C@H](OC(=O)CCC(=O)N2CCCN(c3ccc(F)cc3)CC2)[C@@H]1C)C4=O (stereo partly drawn) [Compound 83]	0.5 µg/mL (≈ 0.462 µM)	0.016 µg/mL	8 ng/mL	0.25 µg/mL	0.25 µg/mL	0.03 µg/mL					
CO[C@H]1/C=C/OC2(C)Oc3c(C)c(O)c4c(c3C2=O)C2=NC3(CCN(CC(C)C)CC3)NC2=C(NC(=O)/C(C)=C\C=C\[C@H](C)[C@H](O)[C@@H](C)[C@@H](O)[C@@H](C)[C@H](OC(=O)CCCC(=O)N2CCCN(c3ccc(F)cc3)CC2)[C@@H]1C)C4=O (stereo partly drawn) [Compound 86]	0.5 µg/mL (≈ 0.456 µM)	0.008 µg/mL	8 ng/mL	0.125 µg/mL	0.125 µg/mL	0.03 µg/mL					
CO[C@H]1/C=C/O[C@@]2(C)Oc3c(C)c(O)c4c(c3C2=O)C2=NC3(CCN(CC(C)C)CC3)NC2=C(NC(=O)/C(C)=C\C=C\[C@H](C)[C@H](O)[C@@H](C)[C@@H](O)[C@@H](C)[C@H](OC(=O)CC(=O)N2CCN(Cc3ccccc3)CC2)[C@@H]1C)C4=O [Compound 91]	0.25 µg/mL (≈ 0.238 µM)	0.016 µg/mL	1 ng/mL	0.125 µg/mL	0.125 µg/mL	0.03 µg/mL					
CO[C@H]1/C=C/OC2(C)Oc3c(C)c(O)c4c(c3C2=O)C2=NC3(CCN(CC(C)C)CC3)NC2=C(NC(=O)/C(C)=C\C=C\[C@H](C)[C@H](O)[C@@H](C)[C@@H](O)[C@@H](C)[C@H](OC(=O)CC(=O)NC2CCN(Cc3ccccc3)C2)[C@@H]1C)C4=O (stereo partly drawn) [Compound 93]	0.125 µg/mL (≈ 0.119 µM)	0.008 µg/mL	8 ng/mL	0.25 µg/mL	0.5 µg/mL	0.25 µg/mL					
CO[C@H]1/C=C/O[C@@]2(C)Oc3c(C)c(O)c4c(c3C2=O)C2=NC3(CCN(CC(C)C)CC3)NC2=C(NC(=O)/C(C)=C\C=C\[C@H](C)[C@H](O)[C@@H](C)[C@@H](O)[C@@H](C)[C@H](OC(=O)CC(=O)N2CCN(C3Cc5ccccc5C3)CC2)[C@@H]1C)C4=O [Compound 95]	0.5 µg/mL (≈ 0.465 µM)	0.03 µg/mL	2 ng/mL	0.125 µg/mL	0.125 µg/mL	0.03 µg/mL					
CO[C@H]1/C=C/OC2(C)Oc3c(C)c(O)c4c(c3C2=O)C2=NC3(CCN(CC(C)C)CC3)NC2=C(NC(=O)/C(C)=C\C=C\[C@H](C)[C@H](O)[C@@H](C)[C@@H](O)[C@@H](C)[C@H](OC(=O)CC(=O)N2CCN(C3CCCCC3)CC2)[C@@H]1C)C4=O (stereo partly drawn) [Compound 96]	0.125 µg/mL (≈ 0.12 µM)	0.008 µg/mL	8 ng/mL	0.25 µg/mL	0.03 µg/mL		0.125 µg/mL				
CO[C@H]1/C=C/OC2(C)Oc3c(C)c(O)c4c(c3C2=O)C2=NC3(CCN(CC(C)C)CC3)NC2=C(NC(=O)/C(C)=C\C=C\[C@H](C)[C@H](O)[C@@H](C)[C@@H](O)[C@@H](C)[C@H](OC(=O)CC(=O)NCCCN(C)c2ccccc2)[C@@H]1C)C4=O (stereo partly drawn) [Compound 97]	0.25 µg/mL (≈ 0.241 µM)	0.008 µg/mL	4 ng/mL	0.25 µg/mL	0.125 µg/mL	0.06 µg/mL					
CO[C@H]1/C=C/O[C@@]2(C)Oc3c(C)c(O)c4c(c3C2=O)C2=NC3(CCN(CC(C)C)CC3)NC2=C(NC(=O)/C(C)=C\C=C\[C@H](C)[C@H](O)[C@@H](C)[C@@H](O)[C@@H](C)[C@H](OC(=O)CC(=O)N2CCN(c3ccccn3)CC2)[C@@H]1C)C4=O [Compound 99]	0.06 µg/mL (≈ 0.0579 µM)	0.008 µg/mL	4 ng/mL	0.25 µg/mL	0.125 µg/mL	0.125 µg/mL					
CO[C@H]1/C=C/OC2(C)Oc3c(C)c(O)c4c(c3C2=O)C2=NC3(CCN(CC(C)C)CC3)NC2=C(NC(=O)/C(C)=C\C=C\[C@H](C)[C@H](O)[C@@H](C)[C@@H](O)[C@@H](C)[C@H](OC(=O)CC(=O)N2CCC(c3ccccc3)CC2)[C@@H]1C)C4=O (stereo partly drawn) [Compound 101]	0.5 µg/mL (≈ 0.483 µM)						0.03 µg/mL	0.06 µg/mL	2 ng/mL	0.125 µg/mL	0.03 µg/mL
CO[C@H]1/C=C/OC2(C)Oc3c(C)c(O)c4c(c3C2=O)C2=NC3(CCN(CC(C)C)CC3)NC2=C(NC(=O)/C(C)=C\C=C\[C@H](C)[C@H](O)[C@@H](C)[C@@H](O)[C@@H](C)[C@H](OC(=O)CC(=O)N2C3CCC2CC(c2ccccc2)C3)[C@@H]1C)C4=O (stereo partly drawn) [Compound 102]	0.5 µg/mL (≈ 0.472 µM)				0.03 µg/mL		0.06 µg/mL	0.03 µg/mL	8 ng/mL	0.25 µg/mL	
CO[C@H]1/C=C/O[C@@]2(C)Oc3c(C)c(O)c4c(c3C2=O)C2=NC3(CCN(CC(C)C)CC3)NC2=C(NC(=O)/C(C)=C\C=C\[C@H](C)[C@H](O)[C@@H](C)[C@@H](O)[C@@H](C)[C@H](OC(=O)CC(=O)N2CCC(c3ccncc3)CC2)[C@@H]1C)C4=O [Compound 104]	0.06 µg/mL (≈ 0.058 µM)	0.004 µg/mL	4 ng/mL	0.25 µg/mL	0.25 µg/mL	0.125 µg/mL					
CO[C@H]1/C=C/O[C@@]2(C)Oc3c(C)c(O)c4c(c3C2=O)C2=NC3(CCN(CC(C)C)CC3)NC2=C(NC(=O)/C(C)=C\C=C\[C@H](C)[C@H](O)[C@@H](C)[C@@H](O)[C@@H](C)[C@H](OC(=O)CC(=O)N2CCC(Nc3ccc(C)cc3)CC2)[C@@H]1C)C4=O [Compound 105]	0.25 µg/mL (≈ 0.235 µM)						0.03 µg/mL	0.06 µg/mL	4 ng/mL	0.25 µg/mL	0.125 µg/mL
COc1cc(NC2CCN(C(=O)CC(=O)O[C@H]3[C@H](C)[C@H](O)[C@H](C)[C@@H](O)[C@@H](C)/C=C/C=C(/C)C(=O)NC4=C5NC6(CCN(CC(C)C)CC6)N=C5c5c(c(O)c(C)c6c5C(=O)[C@@](C)(O/C=C/[C@H](OC)[C@H]3C)O6)C4=O)CC2)cc(OC)c1 [Compound 106]	0.25 µg/mL (≈ 0.225 µM)	0.008 µg/mL	30 ng/mL	0.25 µg/mL	0.5 µg/mL	0.125 µg/mL					
CO[C@H]1/C=C/O[C@@]2(C)Oc3c(C)c(O)c4c(c3C2=O)C2=NC3(CCN(CC(C)C)CC3)NC2=C(NC(=O)/C(C)=C\C=C\[C@H](C)[C@H](O)[C@@H](C)[C@@H](O)[C@@H](C)[C@H](OC(=O)CC(=O)N2CCC(Nc3ccccc3C#N)CC2)[C@@H]1C)C4=O [Compound 107]	0.25 µg/mL (≈ 0.233 µM)						0.06 µg/mL	0.5 µg/mL	16 ng/mL	0.125 µg/mL	0.125 µg/mL
CO[C@H]1/C=C/O[C@@]2(C)Oc3c(C)c(O)c4c(c3C2=O)C2=NC3(CCN(CC(C)C)CC3)NC2=C(NC(=O)/C(C)=C\C=C\[C@H](C)[C@H](O)[C@@H](C)[C@@H](O)[C@@H](C)[C@H](OC(=O)C(C)C(=O)N2CCCN(c3ccc(F)cc3)CC2)[C@@H]1C)C4=O (stereo partly drawn) [Compound 108]	0.25 µg/mL (≈ 0.231 µM)	0.06 µg/mL	8 ng/mL	0.25 µg/mL	0.25 µg/mL	0.06 µg/mL					
CO[C@H]1/C=C/O[C@@]2(C)Oc3c(C)c(O)c4c(c3C2=O)C2=NC3(CCN(CC(C)C)CC3)NC2=C(NC(=O)/C(C)=C\C=C\[C@H](C)[C@H](O)[C@@H](C)[C@@H](O)[C@@H](C)[C@H](OC(=O)CC(=O)N2CCC(Nc3cccnc3)CC2)[C@@H]1C)C4=O [Compound 109]	0.06 µg/mL (≈ 0.0571 µM)						0.25 µg/mL	0.004 µg/mL	30 ng/mL	0.25 µg/mL	1 µg/mL
